# According to patent publication US20250177473A1, “PEPTIDE REGULATORS OF METABOLISM” (Metabico, Inc., priority 2022, published 2025):
# How the values were obtained:
# [1] = test system: C57BL/6 mice on a high-fat diet; experiment: Chronic 28-day administration in HFD mice: bodyweight, water and feed consumption; type: in vivo, mouse; settings: for Weekly food consumption / Weekly water consumption: Metformin 250 mg/kg p.o. daily
# Description: A standard laboratory rodent pellet SNIFF RI/M-H V1534-30 (58% carbohydrates, 9% fat, 33% protein, 306 kcal/100 g) was given ad libitum to the control animals. For HFD groups, the high-fat feed was used. For 1 kg of feed, 610 g of ground SNIFF feed and 360 g of melted pork lard were taken, water (˜250 ml, 60-70° C.), 10 g of sodium chloride, 30 g of sodium glutamate were added. The mixture was brewed to a dough consistency, and food granules were formed. Then the granules were dried at 60-70° C. for 10-12 hours. The finished food for consumption was transferred to the animal-keeping area. The prepared food was stored at 4° C. for no more than 7 days. The approximate energy value of the HFD feed was 516 kcal/100 g (45% fat, 35% carbohydrates, 20% protein).
# The metabolic syndrome was modeled by keeping animals on a HFD for 16 weeks. The control group was kept on a standard diet (STD) during this period. Animals had free access to feed and water located in the cage lid.
# (§1) Groups of 10 animals were formed from the existing groups from Stage 2, with similar mean body weight (Table 6). The animals' bodyweight was monitored three times a week, water, and feed consumption—weekly. After the last treatment, the animals were euthanized for necropsy and their blood collected. The internal organs were examined for the presence of macro damage and weighed. The adipose tissue surrounding the epididymis was evaluated as a marker of obesity in animals. For histological examination, samples of adipose tissue and liver tissue were fixed in 10% formalin solution for further histological analysis.
# The administration volume was 10 ml/kg for drugs administered i.p., 6 μl/animal for i.n. administration and 5 ml/kg for drugs administered p.o.
# The animals were weighed weekly on weeks 1-16 of the experiment (1-120 days of the study), during the administration of the tested substances (121-148 days)—three times a week. The bodyweight of a hungry animal immediately before necropsy was taken to calculate the percentage of organ weight to body weight.
# Each animal's food and water consumption was evaluated weekly by weighing the grid with food or a bottle of water before and after 24 hours.
# [2] = test system: C57BL/6 mice on a high-fat diet; experiment: Blood serum glucose, HOMA-IR and TNF-α after chronic administration in HFD mice; type: in vivo, mouse; settings: metformin 250 mg/kg p.o.
# Description: as §1
# At the end of the study, the animals were euthanized. […]
# Blood serum was analyzed for glucose concentration using the Randox GB reagent kit on an automatic biochemical analyzer Sapphire-400 (Tokyo Boeki LTD, Japan), following the manufacturer's instructions.
# Insulin concentration in blood serum samples was measured by enzyme immunoassay using a standard commercial kit, following the manufacturer's instructions. […] Based on the obtained data on the concentration of insulin and glucose measured in animals before necropsy, the derived parameter of insulin resistance HOMA-IR was calculated using the formula: […]
# The concentration of proinflammatory cytokine TNFa and IL1 was measured in blood serum samples by ELISA using standard commercial kits, following the manufacturer's instructions. […]
smiles,measurement,setting,value
CN(C)C(=N)N=C(N)N [Metformin],Bodyweight during the period the test substance administration,"[1]; Metformin 250 mg/kg p.o. daily from day 122, day 122",34.3 ± 0.7 grams
same,Bodyweight during the period the test substance administration,"[1]; Metformin 250 mg/kg p.o. daily from day 122, day 124",33.9 ± 0.7 grams
same,Bodyweight during the period the test substance administration,"[1]; Metformin 250 mg/kg p.o. daily from day 122, day 126",33.4 ± 0.8 grams
same,Bodyweight during the period the test substance administration,"[1]; Metformin 250 mg/kg p.o. daily from day 122, day 129",32.9 ± 0.7 grams
same,Bodyweight during the period the test substance administration,"[1]; Metformin 250 mg/kg p.o. daily from day 122, day 131",33.1 ± 0.7 grams
same,Bodyweight during the period the test substance administration,"[1]; Metformin 250 mg/kg p.o. daily from day 122, day 133",33.1 ± 0.8 grams
same,Bodyweight during the period the test substance administration,"[1]; Metformin 250 mg/kg p.o. daily from day 122, day 136",32.4 ± 1.1 grams
same,Bodyweight during the period the test substance administration,"[1]; Metformin 250 mg/kg p.o. daily from day 122, day 138",32.2 ± 1.1 grams
same,Bodyweight during the period the test substance administration,"[1]; Metformin 250 mg/kg p.o. daily from day 122, day 141",32.9 ± 0.9 grams
same,Bodyweight during the period the test substance administration,"[1]; Metformin 250 mg/kg p.o. daily from day 122, day 144",33.2 ± 1.0 grams
same,Bodyweight during the period the test substance administration,"[1]; Metformin 250 mg/kg p.o. daily from day 122, day 147",33.5 ± 1.0 grams
same,Weekly food consumption,[1]; Week 1,458.4 ± 55.4 kcal/kg/day
same,Weekly water consumption,[1]; Week 1,0.1095 ± 0.0109 mL/min/kg
same,Weekly food consumption,[1]; Week 2,758.4 ± 51.4 kcal/kg/day
same,Weekly water consumption,[1]; Week 2,0.1199 ± 0.00944 mL/min/kg
same,Weekly food consumption,[1]; Week 3,567.6 ± 21.3 kcal/kg/day
same,Weekly water consumption,[1]; Week 3,0.1505 ± 0.0169 mL/min/kg
same,Weekly food consumption,[1]; Week 4,709.4 ± 22.7 kcal/kg/day
same,Weekly water consumption,[1]; Week 4,0.182 ± 0.0183 mL/min/kg
same,decrease in weight compared to values before substance administration,"[1]; Metformin p.o., chronic 4-week",7.6%
same,Animal body weight before the administration of the tested substances,"[1]; day 112, baseline, group 5 Metformin p.o.",36.94 ± 0.954 grams
same,loss of excess body weight (normalized to HFD control),"[1]; metformin chronic administration, compared with EPSI i.n.",comparable
same,glucose concentration in the blood vs HFD control group,"[2]; 4 weeks, EPSI 5 mg/kg i.p. and i.n.",decrease
same,TNF-α concentration in blood serum vs HFD control,"[2]; four weeks, EPSI 5 mg/kg i.n.",reduced
